ChEMBL document CHEMBL3351925, “The Oxeatamides: nitrogenous spongian diterpenes from the New Zealand marine sponge Darwinella oxeata” (J Nat Prod, 2014)

Test: Cytotoxicity against human HL60 cells after 48 hrs by MTT assay
Assay type: functional, cell-based
Settings: HL-60, 48 h

Compound | IC50
COC(=O)CN1Cc2c(ccc([C@@]3(C)CCCC(C)(C)C3)c2[C@@H](C)C(=O)O)C1=O | > 10 µM
C[C@@H](C(=O)O)c1c([C@@]2(C)CCCC(C)(C)C2)ccc2c1CN(CCc1ccccc1)C2=O | > 10 µM
CC(C)CN1Cc2c(ccc([C@@]3(C)CCCC(C)(C)C3)c2[C@@H](C)C(=O)O)C1=O | > 10 µM
C[C@@H](C(=O)O)c1c([C@@]2(C)CCCC(C)(C)C2)ccc2c1CN(CC(=O)O)C2=O | > 10 µM
CCC(C)CN1Cc2c(ccc([C@@]3(C)CCCC(C)(C)C3)c2[C@@H](C)C(=O)O)C1=O (some centres undefined) | > 10 µM
CC(C)CCN1Cc2c(ccc([C@@]3(C)CCCC(C)(C)C3)c2[C@@H](C)C(=O)O)C1=O | > 10 µM
C[C@@H](C(=O)O)c1c([C@@]2(C)CCCC(C)(C)C2)ccc2c1CN(CCN)C2=O | > 10 µM
C[C@@H](C(=O)O)c1c([C@@]2(C)CCCC(C)(C)C2)ccc2c1CN(CCc1cnc[nH]1)C2=O | > 10 µM
C[C@@H](C(=O)O)c1c([C@@]2(C)CCCC(C)(C)C2)ccc2c1C(=O)N(CC(=O)O)C2 | > 10 µM
